The term IC50 denotes the midpoint of a concentration-inhibition curve.

Here are results for 17 molecules from patent US20230033360A1, “COMPOUNDS AS CD73 INHIBITORS” (BioArdis LLC, priority 2019, published 2023).

This assay has as its target T1, Recombinant Human 5′-Nucleotidase (CD73) (Homo sapiens, UniProt P21589).
T1 construct: CHO derived CD73 (Trp27-Lys547), with a C-terminal 6-His tag; 6-His (C); purchased R&D 5795-EN; host or cells: CHO
T1 sequence (P21589 27-547): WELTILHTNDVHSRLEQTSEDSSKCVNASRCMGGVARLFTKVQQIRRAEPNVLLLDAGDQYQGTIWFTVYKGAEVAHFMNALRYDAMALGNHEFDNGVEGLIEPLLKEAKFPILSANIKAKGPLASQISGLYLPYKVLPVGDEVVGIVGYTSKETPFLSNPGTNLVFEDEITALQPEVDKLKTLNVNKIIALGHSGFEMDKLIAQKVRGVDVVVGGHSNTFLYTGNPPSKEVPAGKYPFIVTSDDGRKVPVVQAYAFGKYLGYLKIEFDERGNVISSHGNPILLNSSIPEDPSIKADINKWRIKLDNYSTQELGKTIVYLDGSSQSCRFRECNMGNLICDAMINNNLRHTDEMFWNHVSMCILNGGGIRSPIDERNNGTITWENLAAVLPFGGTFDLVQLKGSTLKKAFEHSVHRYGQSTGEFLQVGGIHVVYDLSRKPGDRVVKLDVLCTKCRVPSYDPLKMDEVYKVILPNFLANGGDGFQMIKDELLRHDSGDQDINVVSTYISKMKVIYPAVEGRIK
Put plainly: CD73 Enzyme Assay (PiColorLock inorganic phosphate detection, AMP substrate). The format is biochemical. As to conditions: human CD73 0.5 nM, AMP 30 μM, 20 min at 37° C., absorbance 635 nm; read-out: Potency (IC50). The source says: Soluble recombinant CD73 catalyzes the conversion of adenosine monophosphate (AMP) to adenosine and inorganic phosphate. The phosphate detection reagent, PiColorLock™ (Innova Bioscience, Cat #303-0125) is based on the change in absorbance of the dye malachite green in the presence of inorganic phosphate (Pi) and this property can be exploited to measure any enzyme that generates Pi. Recombinant Human 5′-Nucleotidase (CD73) (R&D #5795-EN, CHO derived CD73 (Trp27-Lys547), with a C-terminal 6-His tag) was used in the enzymatic assay. This assay, run in a 384-well plate format (Corning® NBS™ 384 well plates, Cat #3640), is a generic method for measuring inorganic phosphate. The basic assay procedure involves two steps: 1) Enzyme reaction: The CD73 enzyme (R&D #5795-EN) is incubated in the presence or absence of compounds. AMP (sigma, cat #01930) is added to start the […] reaction. 2) Detection step: Gold mix is added to the assay system, then stabilizers are added. After incubation the absorbance of the solution is read at OD 635 nm. The recorded OD signal is proportional to the enzyme activity.
Briefly, 25 μl human CD73 (0.5 nM final concentration) in the enzymatic buffer solutions (20 mM Tris, 25 mM NaCl, 1 mM MgCl2, pH 7.5, 0.005% Tween-20) were mixed with various concentrations of the test compound (dissolved in 100% DMSO). These solutions were incubated for 15 min at 25° C., and subsequently 25 μl AMP (30 μM final concentration) was added to start the reaction. The final reaction mixture of enzyme-substrate-compound was incubated for 20 min at 37° C. Meanwhile ‘Gold mix’ was prepared shortly before use by adding 1/100 vol. of accelerator to the PiColorLock™ Gold reagent. 12 μL/well of the ‘Gold mix’ was added to assay plate containing 50 μL enzyme reaction buffer and incubated at 25° C. for 5 min. 5 μL/well stabilizer was added to the assay plate and incubated at 25° C. for 30 min. The absorbance of the well solutions was measured at 635 nm on a Spark 10M instrument (TECAN).
The percent (%) inhibition at each concentration of a compound was calculated relative to the […] value in the Max and Min control wells contained within each assay plate. The Max control wells contained enzyme and substrate as 0% inhibition, and the Min control wells only contained substrate without enzyme as 100% inhibition. The concentrations and percent inhibition values for a test compound are plotted and the concentration of the compound required to achieve 50% inhibition (IC50) was determined with a four-parameter logistic dose response equation.
Consider `C[C@H](Nc1cc(Cl)nn2c(C3O[C@H](COP(=O)(O)CP(=O)(O)O)[C@@H](O)[C@H]3O)cnc12)c1ccccc1` (stereo partly drawn) [Example S18, (((((2R,3S,4R)-5-(6-chloro-8-(((S)-1-phenylethyl)amino)imidazo[1,2-b]pyridazin-3-yl)-3,4-dihydroxytetrahydrofuran-2-yl)methoxy)(hydroxy)phosphoryl)methyl)phosphonic acid], for which the IC50 was 1 to 9.9 nM. Regarding `C[C@H](Nc1cc(Cl)nn2c(C3O[C@H](COP(=O)(O)CP(=O)(O)O)[C@@H](O)[C@@H]3F)cnc12)c1ccccc1F` (stereo partly drawn) [Example S19, (((((2R,3R,4S)-5-(6-chloro-8-(((S)-1-(2-fluorophenyl)ethyl)amino)imidazo[1,2-b]pyridazin-3-yl)-4-fluoro-3-hydroxytetrahydrofuran-2-yl)methoxy)(hydroxy)phosphoryl)methyl)phosphonic acid], the IC50 was in the range of 10 to 99 nM.

For the molecule `O=P(O)(O)CP(=O)(O)OC[C@H]1OC(c2cnc3c(N4CCCC4)cc(Cl)nn23)[C@H](O)[C@@H]1O` (stereo partly drawn) [Example S20, (((((2R,3S,4R)-5-(6-chloro-8-(pyrrolidin-1-yl)imidazo[1,2-b]pyridazin-3-yl)-3,4-dihydroxytetrahydrofuran-2-yl)methoxy)(hydroxy)phosphoryl)methyl)phosphonic acid], the IC50 fell in the range of 1 to 9.9 nM. Next, `O=P(O)(O)CP(=O)(O)OC[C@H]1OC(c2cnc3c(N4CCCC4)cc(Cl)nn23)[C@@H](F)[C@@H]1O` (stereo partly drawn) [Example S21, (((((2R,3R,4S)-5-(6-chloro-8-(pyrrolidin-1-yl)imidazo[1,2-b]pyridazin-3-yl)-4-fluoro-3-hydroxytetrahydrofuran-2-yl)methoxy)(hydroxy)phosphoryl)methyl)phosphonic acid]: 10 to 99 nM; `O=P(O)(O)CP(=O)(O)OC[C@H]1OC(c2cnc3c(N4CCC(F)(F)C4)cc(Cl)nn23)[C@@H](F)[C@@H]1O` (stereo partly drawn) [Example S22, (((((2R,3R,4S)-5-(6-chloro-8-(3,3-difluoropyrrolidin-1-yl)imidazo[1,2-b]pyridazin-3-yl)-4-fluoro-3-hydroxytetrahydrofuran-2-yl)methoxy)(hydroxy)phosphoryl)methyl)phosphonic acid]: 10 to 99 nM. With `O=P(O)(O)CP(=O)(O)OC[C@H]1OC(c2cnc3c(N4CC5CC5C4)cc(Cl)nn23)[C@H](O)[C@@H]1O` (stereo partly drawn) [Example S23, (((((2R,3S,4R)-5-(8-(3-azabicyclo[3.1.0]hexan-3-yl)-6-chloroimidazo[1,2-b]pyridazin-3-yl)-3,4-dihydroxytetrahydrofuran-2-yl)methoxy)(hydroxy)phosphoryl)methyl)phosphonic acid], the IC50 is below 1 nM.

As for `O=P(O)(O)CP(=O)(O)OC[C@H]1OC(c2cnc3c(N4CC5CCCC5C4)cc(Cl)nn23)[C@@H](F)[C@@H]1O` (stereo partly drawn) [Example S24, (((((2R,3R,4S)-5-(6-chloro-8-(hexahydrocyclopenta[c]pyrrol-2 (1H)-yl)imidazo[1,2-b]pyridazin-3-yl)-4-fluoro-3-hydroxytetrahydrofuran-2-yl)methoxy)(hydroxy)phosphoryl)methyl)phosphonic acid], the IC50 was in the range of 1 to 9.9 nM. Next, `O=P(O)(O)CP(=O)(O)OC[C@H]1OC(c2cnc3c(N4CCc5ccccc54)cc(Cl)nn23)[C@H](O)[C@@H]1O` (stereo partly drawn) [Example S25, (((((2R,3S,4R)-5-(6-chloro-8-(indolin-1-yl)imidazo[1,2-b]pyridazin-3-yl)-3,4-dihydroxytetrahydrofuran-2-yl)methoxy)(hydroxy)phosphoryl)methyl)phosphonic acid]: 1 to 9.9 nM; `O=P(O)(O)CP(=O)(O)OC[C@H]1OC(c2cnc3c(N4CCCCC4)cc(Cl)nn23)[C@H](O)[C@@H]1O` (stereo partly drawn) [Example S26, (((((2R,3S,4R)-5-(6-chloro-8-(piperidin-1-yl)imidazo[1,2-b]pyridazin-3-yl)-3,4-dihydroxytetrahydrofuran-2-yl)methoxy)(hydroxy)phosphoryl)methyl)phosphonic acid]: 1 to 9.9 nM; `O=P(O)(O)CP(=O)(O)OC[C@H]1OC(c2cnc3c(N4CCCC[C@H]4c4ccccc4)cc(Cl)nn23)[C@H](O)[C@@H]1O` (stereo partly drawn) [Example S27, (((((2R,3S,4R)-5-(6-chloro-8-((S)-2-phenylpiperidin-1-yl)imidazo[1,2-b]pyridazin-3-yl)-3,4-dihydroxytetrahydrofuran-2-yl)methoxy)(hydroxy)phosphoryl)methyl)phosphonic acid]: 1 to 9.9 nM.

Turning to `O=P(O)(O)CP(=O)(O)OC[C@H]1OC(c2cnc3c(N4CCc5ccccc5C4)cc(Cl)nn23)[C@H](O)[C@@H]1O` (stereo partly drawn) [Example S28, (((((2R,3S,4R)-5-(6-chloro-8-(3,4-dihydroisoquinolin-2 (1H)-yl)imidazo[1,2-b]pyridazin-3-yl)-3,4-dihydroxytetrahydrofuran-2-yl)methoxy)(hydroxy)phosphoryl)methyl)phosphonic acid], the IC50 was 1 to 9.9 nM. Next, `O=P(O)(O)CP(=O)(O)OC[C@H]1OC(c2cnc3c(N4CCC(F)(F)CC4)cc(Cl)nn23)[C@H](O)[C@@H]1O` (stereo partly drawn) [Example S29, (((((2R,3S,4R)-5-(6-chloro-8-(4,4-difluoropiperidin-1-yl)imidazo[1,2-b]pyridazin-3-yl)-3,4-dihydroxytetrahydrofuran-2-yl)methoxy)(hydroxy)phosphoryl)methyl)phosphonic acid]: 1 to 9.9 nM; `O=P(O)(O)CP(=O)(O)OC[C@H]1OC(c2cnc3c(OC4CCCC4)cc(Cl)nn23)[C@H](O)[C@@H]1O` (stereo partly drawn) [Example S30, (((((2R,3S,4R)-5-(6-chloro-8-(cyclopentyloxy)imidazo[1,2-b]pyridazin-3-yl)-3,4-dihydroxytetrahydrofuran-2-yl)methoxy)(hydroxy)phosphoryl)methyl)phosphonic acid]: 1 to 9.9 nM; `O=P(O)(O)CP(=O)(O)OC[C@H]1O[C@@H](c2cnc3c(NC4CCCC4)cc(Cl)nn23)[C@@H](F)[C@@H]1O` [Example S31, (((((2R,3R,4S,5S)-5-(6-chloro-8-(cyclopentylamino)imidazo[1,2-b]pyridazin-3-yl)-4-fluoro-3-hydroxytetrahydrofuran-2-yl)methoxy)(hydroxy)phosphoryl)methyl)phosphonic acid]: 10 to 99 nM.

Turning to `CN(c1cc(Cl)nn2c([C@@H]3O[C@H](COP(=O)(O)CP(=O)(O)O)[C@@H](O)[C@H]3O)cnc12)C1CCCC1` [Example S32], the IC50 fell in the range of 1 to 9.9 nM. Next, `O=P(O)(O)CP(=O)(O)OC[C@H]1O[C@@H](c2cnc3c(NC45CCC(CC4)C5)cc(Cl)nn23)[C@H](O)[C@@H]1O` [Example S33, [({[(2R,3S,4R,5S)-5-(8-{bicyclo[2.2.1]heptan-1-ylamino}-6-chloroimidazo[1,2-b]pyridazin-3-yl)-3,4-dihydroxyoxolan-2-yl]methoxy}(hydroxy)phosphoryl)methyl]phosphonic acid]: 1 to 9.9 nM; `O=P(O)(O)CP(=O)(O)OC[C@H]1O[C@@H](c2cnc3c(N4CCC[C@H]4c4ccccc4F)cc(Cl)nn23)[C@H](O)[C@@H]1O` [Example S34, (((((2R,3S,4R,5S)-5-(6-chloro-8-((S)-2-(2-fluorophenyl)pyrrolidin-1-yl)imidazo[1,2-b]pyridazin-3-yl)-3,4-dihydroxytetrahydrofuran-2-yl)methoxy)(hydroxy)phosphoryl)methyl)phosphonic acid]: 1 to 9.9 nM.
